The source of these data is publication PMC9544171, “Glucose‐dependent insulinotropic polypeptide receptor antagonist treatment causes a reduction in weight gain in ovariectomised high fat diet‐fed mice” (British Journal of Pharmacology, 2022).

Where no end group is shown, it is not given here.

For assay [1], the target named is T1, mouse GIP receptor (Mus musculus, UniProt Q0P543).
T1 construct: host or cells: COS-7
T1 sequence (Q0P543 19-460): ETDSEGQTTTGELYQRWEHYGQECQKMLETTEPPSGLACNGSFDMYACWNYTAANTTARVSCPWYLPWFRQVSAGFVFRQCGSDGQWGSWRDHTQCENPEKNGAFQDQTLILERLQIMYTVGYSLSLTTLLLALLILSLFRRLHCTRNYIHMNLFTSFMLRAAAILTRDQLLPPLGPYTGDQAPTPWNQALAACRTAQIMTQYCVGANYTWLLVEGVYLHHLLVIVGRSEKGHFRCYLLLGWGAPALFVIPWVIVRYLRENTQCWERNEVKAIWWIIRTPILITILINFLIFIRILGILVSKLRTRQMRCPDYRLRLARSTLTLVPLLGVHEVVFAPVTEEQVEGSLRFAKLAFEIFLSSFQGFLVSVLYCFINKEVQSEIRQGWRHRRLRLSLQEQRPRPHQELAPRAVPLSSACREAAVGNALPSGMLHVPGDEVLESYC
In words: cAMP accumulation, antagonism of mouse GIP(1‐42) in transfected COS‐7 cells. Format: cell-based. To be noted: COS‐7 transiently transfected with mouse GIPR; 10 min preincubation with antagonist, then mouse GIP(1‐42) at 50%–80% of Emax for 20 min; HitHunter cAMP; Hill slope −1.0; n = 5 independent experiments; read-out: IC50, inhibition of mGIP‐induced cAMP accumulation, mouse GIPR. The protocol:
(§1) COS‐7 cells were cultured at 10% CO2 and 37°C in Dulbecco's Modified Eagle Medium 1885 supplemented with 10% foetal bovine serum, 2‐mM glutamine, 180‐units ml^−1 penicillin and […] streptomycin. Transient transfection of the cells with either human or mouse GIP receptor was performed using the calcium phosphate precipitation method as previously described (van der Velden et al., [2021]). A second set of cells was transiently transfected with either mouse GLP‐1 or GLP‐2 receptor. Following the day after transfection, the cells were seeded in white 96‐well plates with a density of 35.000 cells per well. The next day the assay was initiated by washing the cells with HEPES buffered saline (HBS) followed by an incubation step with HBS and 1‐mM 3‐isobutyl‐1‐methylxanthine for 30 min at 37°C. For agonist studies, the ligands were then added and incubated for an additional 30 min at 37°C. To test for antagonistic properties, the cells were first preincubated for 10 min with the antagonist with subsequent addition of the agonist and incubated for an additional 20 min. The HitHunter® cAMP assay (Eurofins DiscoverX, Fremont, USA) was carried out according to the manufacturer's protocol. Luminescence was measured by PerkinElmer™ Envision 2014 Multilabel Reader.
To facilitate comparisons of assay outputs (cAMP assays), the results (of duplicate measurements) were normalized, with the response to 10 pM of GIP(1‐42) set as 100%. All ligand concentrations are reported as log‐transformed. The IC50 log values can be found in Figure 1. In Figure 3c, we have subtracted glucose levels from baseline to show the net differences in glucose levels in our different treatment groups. […]
Results are presented as mean ± SE. Data were analysed with one‐way and two‐way analysis of variance (ANOVA) with Tukey's or Sidak multiple comparisons test and Student's unpaired t tests where appropriate. […] For the in vitro data IC50 values were determined by nonlinear regression using GraphPad Prism 9 (San Diego, California, USA). […]
(Changes in cAMP serve as a functional read-out for many G protein-coupled receptors.)

Assay [2] concerns the target T1, mouse GIP receptor. In words: cAMP accumulation, agonism (intrinsic activity) in transfected COS‐7 cells. To be noted: increasing concentrations of ligand alone, 30 min, COS‐7, n = 5. The class given is cell-based. The protocol:
as §1
(§2) To facilitate comparisons of assay outputs (cAMP assays), the results (of duplicate measurements) were normalized, with the response to 10 pM of GIP(1‐42) set as 100%. All ligand concentrations are reported as log‐transformed. The IC50 log values can be found in Figure 1. In Figure 3c, we have subtracted glucose levels from baseline to show the net differences in glucose levels in our different treatment groups.
FIGURE 1 In vitro signalling profile of mGIPAnt‐1 on the mouse and human glucose‐dependent insulinotropic polypeptide receptor/(GIPR). COS‐7 cells were transiently transfected with (a) mouse GIPR or (b) human GIPR and assayed for cAMP accumulation. To test for agonism, increasing concentration of the ligand was added. […]

The subject of a further assay is Female C57Bl6/J mice. In words: Intraperitoneal glucose tolerance test, inhibition of exogenous GIP. The class given is in vivo, mouse. The protocol:
To assess the biological activity of mGIPAnt‐1, we performed an intraperitoneal glucose tolerance test. Mice were fasted for 4 h and given either mGIPAnt‐1 ([…]; s.c.) or vehicle at t = −90 min. Group sizes were as follows:‐ Vehicle + Vehicle, n = 10, Vehicle + GIP, n = 12 and mGIPAnt‐1 + GIP, n = 8. Varying group numbers were due to unsuccessful administration of one of the four compounds as confirmed by measurements of plasma concentrations. At t = −10 all mice were given an intraperitoneal (i.p.) injection with dipeptidyl peptidase‐4 (DPP‐4) inhibitor valine pyrrolidide followed by s.c. injection of either 25 nmol·kg^−1 GIP (Synthetic mouse GIP(1‐42) or vehicle. At t = 0 min, mice received an i.p. injection with 0.5‐g·kg^−1 glucose. Blood glucose was measured from the tail vein using a hand‐held glucometer (Accu‐Chek Mobile, Roche, Basel, Switzerland) at t = 0, 10, 30, 45, 60, 120 and 180 min. Retro‐orbital blood samples (50 μl) were taken using EDTA coated glass capillaries (Vitrex, Vasekær, Denmark) at t = 0, 15, 30 and 60, 120 and 180 min and centrifuged at 3500g, 20 min, 4°C. Plasma was transferred into Eppendorf tubes on dry ice and stored at −20°C for later insulin measurements.
as §2

Another assay addresses T2, human GIP receptor (Homo sapiens, UniProt P48546).
T2 construct: host or cells: COS-7
T2 sequence (P48546 22-466): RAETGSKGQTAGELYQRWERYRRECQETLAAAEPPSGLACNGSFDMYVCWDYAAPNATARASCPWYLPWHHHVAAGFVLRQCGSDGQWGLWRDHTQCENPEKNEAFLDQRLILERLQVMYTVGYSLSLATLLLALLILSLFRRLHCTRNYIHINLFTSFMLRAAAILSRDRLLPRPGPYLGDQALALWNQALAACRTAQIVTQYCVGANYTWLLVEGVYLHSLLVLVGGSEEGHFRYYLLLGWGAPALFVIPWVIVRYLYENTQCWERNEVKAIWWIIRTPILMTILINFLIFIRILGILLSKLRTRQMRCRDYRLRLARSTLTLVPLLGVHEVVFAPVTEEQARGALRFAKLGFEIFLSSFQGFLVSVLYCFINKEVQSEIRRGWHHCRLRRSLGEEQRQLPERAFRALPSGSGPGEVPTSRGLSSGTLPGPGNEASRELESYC
Conditions: previously shown, [2016], cited from earlier work. Here is the method: The antagonistic properties of mGIPAnt‐1 were determined in vitro in cAMP accumulation before initiation of the in vivo studies in comparison to the naturally occurring […] GIP(3‐30)NH2. The experiments were done on both the human and mouse GIP receptor to examine the translatability between species. To keep the experiments species specific, mGIPAnt‐1 was compared to mouse GIP(3‐30)NH2 (mGIP(3‐30)NH2) on the mouse GIP receptor and human GIP(3‐30)NH2 (hGIP(3‐30)NH2) on the human GIP receptor. We also determined whether mGIPAnt‐1 had any intrinsic activity. Here we observed no activation of the ...

A further assay addresses T3, mouse GLP‐2 receptor (Mus musculus, UniProt Q5IXF8).
T3 construct: host or cells: COS-7
T3 sequence (Q5IXF8 1-512): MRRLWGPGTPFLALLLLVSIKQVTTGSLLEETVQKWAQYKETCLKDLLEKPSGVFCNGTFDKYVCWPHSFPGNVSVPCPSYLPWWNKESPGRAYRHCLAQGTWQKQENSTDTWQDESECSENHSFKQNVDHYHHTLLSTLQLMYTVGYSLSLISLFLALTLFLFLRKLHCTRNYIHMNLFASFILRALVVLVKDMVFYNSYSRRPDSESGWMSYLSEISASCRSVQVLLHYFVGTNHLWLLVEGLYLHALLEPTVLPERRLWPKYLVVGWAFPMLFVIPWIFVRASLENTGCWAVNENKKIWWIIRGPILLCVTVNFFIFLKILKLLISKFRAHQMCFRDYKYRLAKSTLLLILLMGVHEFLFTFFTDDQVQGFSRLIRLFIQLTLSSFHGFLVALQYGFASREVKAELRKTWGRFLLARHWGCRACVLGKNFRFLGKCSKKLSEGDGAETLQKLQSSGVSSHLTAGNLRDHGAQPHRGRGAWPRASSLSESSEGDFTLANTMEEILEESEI
As to the kind of experiment: cAMP accumulation, agonism in transfected COS‐7 cells. The class given is cell-based. Conditions: increasing concentrations, COS‐7, n = 5. Here is the method: as §1
FIGURE 2 In vitro signalling profile of mGIPAnt‐1 on the mouse GLP‐1 and GLP‐2 receptor (R). […]

By IC50 is commonly meant the concentration at which inhibition is half-maximal. Regarding `CC[C@H](C)[C@H](NC(=O)[C@H](CO)NC(=O)[C@H](Cc1ccc(O)cc1)NC(=O)[C@H](CC(=O)O)NC(=O)[C@H](CO)NC(=O)[C@@H](NC(=O)[C@H](Cc1ccccc1)NC(=O)[C@@H](NC(=O)CNC(=O)[C@@H](N)CCC(=O)O)[C@@H](C)O)[C@@H](C)CC)C(=O)N[C@@H](C)C(=O)N[C@@H](CCSC)C(=O)N[C@@H](CC(=O)O)C(=O)N[C@@H](CCCCN)C(=O)N[C@H](C(=O)N[C@@H](CCCNC(=N)N)C(=O)N[C@@H](CCC(N)=O)C(=O)N[C@@H](CCC(N)=O)C(=O)N[C@@H](CC(=O)O)C(=O)N[C@@H](Cc1ccccc1)C(=O)N[C@H](C(=O)N[C@@H](CC(N)=O)C(=O)N[C@@H](Cc1c[nH]c2ccccc12)C(=O)N[C@@H](CC(C)C)C(=O)N[C@@H](CC(C)C)C(=O)N[C@@H](C)C(=O)N[C@@H](CCC(N)=O)C(=O)N[C@@H](CCCNC(=N)N)C(N)=O)C(C)C)[C@@H](C)CC` [mGIP(3‐30)NH2, mouse GIP(3‐30)NH2, reference compound], at mouse GIP receptor [1], the IC50 was 813 nM. Besides, at mouse GIP receptor [2], the “intrinsic activity (activation of mouse GIP receptor, cAMP)” value is “neither did mGIP(3‐30)NH2 activate”.

As for “Synthetic mouse GIP(1‐42) (YAEGTFISDYSIAMDKIRQQDFVNWLLAQRGKKSDWKHNITQ; Gastric inhibitory polypeptide; UniProt P48756 44-85, looked up) [reference compound]”, the “baseline‐subtracted glucose curve during IPGTT” value in the assay on Female C57Bl6/J mice (mGIPAnt‐1 25 μmol·kg−1 s.c. t = −90 min, GIP 25 nmol·kg−1 s.c. and val‐pyr t = −10 min, glucose 0.5 g·kg−1 i.p., n = 8–12) is “lowered glucose levels significantly from t = 45 min and onwards”. Further, in the assay with Female C57Bl6/J mice (t = 120 and 180 min, same dosing as glucose curve), the “glucose levels relative to baseline late in IPGTT” value is “glucose levels dropped significantly below baseline at t = 120 and t = 180 min”. Also, the “incremental area under the glucose curve (iAUC), IPGTT” value with Female C57Bl6/J mice (vehicle + GIP 25 nmol·kg−1 versus vehicle + vehicle and versus mGIPAnt‐1 + GIP) is recorded as “significantly different”.

Consider “human GIP(3‐30)NH2 (EGTFISDYSIAMDKIHQQDFVNWLLAQK-NH2; UniProt P09681 54-81, looked up, fragment) [hGIP(3‐30)NH2]”, for which the “intrinsic activity (activation of human GIP receptor)” value with human GIP receptor (ref Gabe et al., [2018], Gasbjerg et al., [2017], Hansen et al.) is reported as “no activation”. In addition, in the assay with human GIP receptor (ref Hansen et al., read-out: IC50, antagonism of human GIPR), the IC50 is 12 nM.

Turning to “mGLP‐2: mouse GLP‐2, control agonist at the mouse GLP‐2 receptor (HADGSFSDEMSTILDNLATRDFINWLIQTKITD; Glucagon-like peptide 2; UniProt P55095 146-178, looked up) [reference compound]”, the “activation of mouse GLP‐2 receptor (cAMP)” value in the assay with mouse GLP‐2 receptor is given as “shown to activate their receptors”.
